In patent publication US20090215717A1, “Sulfated oligosaccharides” (Ivax Drug Research Institute Ltd., priority 2004, published 2009):
Counter-ions that a name gives are not always drawn. Like-named read-outs stand apart in the source and are kept apart here.

How the values were obtained:
[1] = biological target: T1, IP-3 receptor (Rattus norvegicus, UniProt P29994); test: IP-3 receptor antagonistic effect, rat cerebellum membrane preparations (Model 5); type: binding; settings: for IC50 Average ± SEM (n) / IC50: inhibition of IP-3 binding
T1 construct: rat cerebellum membrane preparations; from tissue; host or cells: rat cerebellum (microsomal membrane preparation)
T1 sequence (P29994 whole entry): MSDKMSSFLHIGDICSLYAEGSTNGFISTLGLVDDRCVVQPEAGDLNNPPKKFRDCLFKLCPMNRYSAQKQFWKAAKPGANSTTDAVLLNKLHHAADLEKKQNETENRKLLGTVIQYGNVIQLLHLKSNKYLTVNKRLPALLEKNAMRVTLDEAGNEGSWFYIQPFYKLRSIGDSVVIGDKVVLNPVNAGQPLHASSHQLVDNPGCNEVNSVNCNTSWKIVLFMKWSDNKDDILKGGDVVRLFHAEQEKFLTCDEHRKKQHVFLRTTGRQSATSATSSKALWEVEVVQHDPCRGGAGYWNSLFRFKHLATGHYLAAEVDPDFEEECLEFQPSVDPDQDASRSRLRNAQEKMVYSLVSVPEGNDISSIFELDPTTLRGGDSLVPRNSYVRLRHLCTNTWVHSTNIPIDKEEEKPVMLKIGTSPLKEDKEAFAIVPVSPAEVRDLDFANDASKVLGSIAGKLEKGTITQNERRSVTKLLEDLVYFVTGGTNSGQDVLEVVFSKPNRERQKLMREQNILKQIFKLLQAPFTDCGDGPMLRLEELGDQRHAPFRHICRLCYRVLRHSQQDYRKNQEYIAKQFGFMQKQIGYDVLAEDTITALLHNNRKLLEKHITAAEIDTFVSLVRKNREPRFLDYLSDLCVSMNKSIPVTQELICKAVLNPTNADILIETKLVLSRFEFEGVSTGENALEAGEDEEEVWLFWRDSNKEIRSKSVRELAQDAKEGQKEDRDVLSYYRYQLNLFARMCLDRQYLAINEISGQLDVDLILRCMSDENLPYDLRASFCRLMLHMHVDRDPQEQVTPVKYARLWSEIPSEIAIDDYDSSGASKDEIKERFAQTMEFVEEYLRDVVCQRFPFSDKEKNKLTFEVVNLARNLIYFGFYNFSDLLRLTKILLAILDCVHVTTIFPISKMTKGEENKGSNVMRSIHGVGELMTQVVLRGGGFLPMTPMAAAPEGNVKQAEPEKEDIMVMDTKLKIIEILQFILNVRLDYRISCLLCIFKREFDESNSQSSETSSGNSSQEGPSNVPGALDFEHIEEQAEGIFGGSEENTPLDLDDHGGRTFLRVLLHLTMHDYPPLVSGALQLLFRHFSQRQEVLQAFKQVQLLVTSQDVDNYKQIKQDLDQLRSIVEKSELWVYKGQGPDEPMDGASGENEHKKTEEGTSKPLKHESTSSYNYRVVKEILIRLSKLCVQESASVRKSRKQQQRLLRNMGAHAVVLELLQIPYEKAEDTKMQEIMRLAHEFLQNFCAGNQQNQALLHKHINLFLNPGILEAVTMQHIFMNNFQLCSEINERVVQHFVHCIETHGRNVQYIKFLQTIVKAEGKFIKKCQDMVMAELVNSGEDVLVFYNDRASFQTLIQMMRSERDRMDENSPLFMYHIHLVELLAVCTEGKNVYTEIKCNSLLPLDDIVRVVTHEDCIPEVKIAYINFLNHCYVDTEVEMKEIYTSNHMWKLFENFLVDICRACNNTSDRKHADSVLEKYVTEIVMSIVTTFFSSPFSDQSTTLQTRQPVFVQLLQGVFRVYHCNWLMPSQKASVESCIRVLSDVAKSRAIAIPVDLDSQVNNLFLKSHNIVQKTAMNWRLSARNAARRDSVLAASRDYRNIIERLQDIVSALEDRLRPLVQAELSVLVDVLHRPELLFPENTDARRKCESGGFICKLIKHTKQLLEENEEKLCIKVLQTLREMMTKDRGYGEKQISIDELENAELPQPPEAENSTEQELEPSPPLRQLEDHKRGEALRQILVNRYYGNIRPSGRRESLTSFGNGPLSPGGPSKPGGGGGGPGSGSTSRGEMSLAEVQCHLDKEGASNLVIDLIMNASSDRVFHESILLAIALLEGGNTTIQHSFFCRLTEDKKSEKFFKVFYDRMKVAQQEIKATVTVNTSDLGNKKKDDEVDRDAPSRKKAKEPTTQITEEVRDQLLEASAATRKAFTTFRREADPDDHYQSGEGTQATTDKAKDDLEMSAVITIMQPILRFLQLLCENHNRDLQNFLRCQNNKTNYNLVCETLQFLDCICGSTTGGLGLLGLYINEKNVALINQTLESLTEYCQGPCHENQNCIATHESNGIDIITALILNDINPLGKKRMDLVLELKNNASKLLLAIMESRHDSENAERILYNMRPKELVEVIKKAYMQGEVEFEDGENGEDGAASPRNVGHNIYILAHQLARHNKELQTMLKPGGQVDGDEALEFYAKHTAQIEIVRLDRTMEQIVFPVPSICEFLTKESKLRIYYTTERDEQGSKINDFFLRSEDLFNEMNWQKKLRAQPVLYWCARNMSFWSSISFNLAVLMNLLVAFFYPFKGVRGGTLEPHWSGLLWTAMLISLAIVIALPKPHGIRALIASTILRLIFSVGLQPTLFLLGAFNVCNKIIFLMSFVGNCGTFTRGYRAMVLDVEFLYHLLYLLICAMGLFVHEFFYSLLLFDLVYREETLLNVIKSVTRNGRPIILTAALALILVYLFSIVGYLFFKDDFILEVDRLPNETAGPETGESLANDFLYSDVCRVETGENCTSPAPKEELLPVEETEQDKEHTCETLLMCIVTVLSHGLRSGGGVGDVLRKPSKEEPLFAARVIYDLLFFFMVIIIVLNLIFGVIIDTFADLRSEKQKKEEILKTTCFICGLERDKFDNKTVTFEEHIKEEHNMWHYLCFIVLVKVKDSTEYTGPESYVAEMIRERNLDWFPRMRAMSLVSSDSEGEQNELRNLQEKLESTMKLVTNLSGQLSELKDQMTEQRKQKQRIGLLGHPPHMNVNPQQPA
Experimental: The sulfated oligosaccharides of the present invention, depending on their chemical structure, inhibit the binding of inositol-1,4,5-trisphophate […] to its receptor in microsomal membrane preparations. As IP-3 is a messenger molecule playing distinguished role in the activation of different cells, interfering with this function can explain the anti-asthmatic effect of these sulfated oligosaccharides.
The IP-3 antagonist effect of the sulfated oligosaccharides was determined using rat cerebellum membrane preparations according to Worley et al. (JBC 262, 12132, 1987).

[2] = test system: Brown Norway (BN) rats; test: Tracheal contraction to acetylcholine ex vivo after antigen challenge of ovalbumin-sensitized BN rats (Model 1); type: in vivo, rat; settings: for MAX: contraction at maximal Ach concentration relative to control (mean ± SEM): placebo 220 ± 30, control 100 ± 0; for ED50: log M acetylcholine (Ach), causing 50% contraction relative to control (mean ± SEM): trachea 48 h post challenge, placebo 6.10 ± 0.30, control 5.16 ± 0.08
Experimental: Examination of the effect of locally administered sulfated oligosaccharides on airways' hyper-responsiveness ex vivo.
Brown Norway (BN) rats were actively sensitized to ovalbumin (OA) by a subcutaneous injection of 0.5 ml of OA/Al(OH)3 gel mixture (2 mg OA+10 g Al(OH)3/100 ml saline) on day 1 with subsequent subcutaneous injections (10 mg OA+10 g Al(OH)3/100 ml saline) given on days 14 and 21. On day 28, animals received the compound of formula (IIA) intratracheally (0.01 or 1.0 mg/kg dose) 2 hours before antigen challenge. Antigen challenge was performed by inhalation of nebulised ovalbumin (1% antigen solution administered in a TSE inhalation system for 1 hour). Animals were sacrificed 48 hours post antigen challenge wherein the tracheas were removed to an organ bath. Dissected tracheas were allowed to equilibrate for 30 minutes before measuring tracheal spasmogenic response curves to acetylcholine (Ach).
As shown in Table 1 ovalbumin challenge of sensitized animals in this model caused a significant tracheal hyper-reactivity to acetylcholine, when the response to the spasmogenic agent was determined 48 h after antigen challenge.

[3] = test system: BN rats; test: Allergen stimulated mucus production of airways epithelial cells, PAS(+) cell count (Model 2); type: in vivo, rat; settings: for number of PAS(+) cells as percent of total number of cells (average ± SEM): lungs 48 h after challenge, challenge 27.6 ± 3.5, control 2.9 ± 0.9
Experimental: Sensitized BN rats were treated intratracheally with 0.01 or 1.0 mg/kg dose of compound of formula (IIA), two hours before antigenic challenge, using a similar protocol described in Model 1. Lungs were collected 48 hours after challenge and were fixed in 8% phophospate buffered formaldehyde. Samples were then processed for histochemistry routinely. 5 μm thick sections were stained with periodic-acid-Schiff (PAS) reagents and were counterstained with haematoxylin-eosine. On the sections each epithelial cells of the airways were counted in the whole preparation at a magnification of 400×. The number of PAS(+) [mucus producing] epithelial cells was expressed as the ratio of the […] of epithelial cells.
As it is shown in Table 2, allergen challenge stimulates the mucus production of airways epithelial cells (control vs. challenge).

[4] = test system: BN rats; test: Perivascular oedema in asthmatic lung tissue (Model 3); type: in vivo, rat; settings: for Oedema: area of oedema relative to area of vasculature (average ± SEM): lungs 48 h after challenge, challenge 224 ± 17, control 71 ± 7
Experimental: Sensitized BN rats were treated intratracheally with 0.01 and 1.0 mg/kg dose of compound of formula (IIA), two hours before antigenic challenge, using a similar protocol described in Model 1. Lungs were collected 48 hours after challenge and were fixed in 8% phosphate buffered formaldehyde. Samples were then processed for histochemistry routinely. […] thick sections were stained with periodic-acid-Schiff (PAS) reagents and were counterstained with haematoxylin-eosine. On the sections the areas of the connective tissue around the vasculare were determined and expressed as a ratio of the area of the corresponding blood vessel itself.

[5] = test system: BN rats; test: Eosinophilia in bronchoalveolar lavage fluid (Model 4); type: in vivo, rat; settings: for Eosinophil: eosinophil number/ml BALF (average ± SEM): BALF 48 h after challenge, challenge 1.00 ± 0.16, control 0.35 ± 0.04
Experimental: Sensitized BN rats were treated intratracheally with 0.01 and 1.0 mg/kg dose of compound of formula (IIA); two hours before antigenic challenge, using a similar protocol described in Model 1. Bronchoalveolar lavage fluids (BALF) were collected 48 hours after challenge and after staining, the number of eosinophils were determined.
As it is shown in Table 4, allergen challenge causes an increase in the number of eosinophils in the bronchioalveolar lavage.

[6] = 0.01 mg/kg intratracheally 2 h before antigen challenge
[7] = 1.0 mg/kg intratracheally 2 h before antigen challenge
[8] = 0.01 mg/kg intratracheally 2 h before challenge
[9] = 1.0 mg/kg intratracheally 2 h before challenge
[10] = higher dose (1.0 mg/kg intratracheally)

SMILES | IP-3 antagonist activity (in words) [1] | IC50 Average ± SEM (n) [1] | IC50 ([1]; read-out: Average IC50) | IC50 ([1]; read-out: IC50 Average ± SEM (n) (converted)) | MAX: contraction at maximal Ach concentration relative to control (mean ± SEM) [2, 6] | ED50: log M acetylcholine (Ach), causing 50% contraction relative to control (mean ± SEM) [2, 6] | MAX: contraction at maximal Ach concentration relative to control (mean ± SEM) [2, 7] | ED50: log M acetylcholine (Ach), causing 50% contraction relative to control (mean ± SEM) [2, 7] | effect on tracheal hyper-reactivity to acetylcholine (in words) ([2]; both applied doses (0.01 and 1.0 mg/kg intratracheally)) | effect on number of PAS(+), mucus producing cells (in words) ([3]; 0.01 mg/kg intratracheally) | number of PAS(+) cells as percent of total number of cells (average ± SEM) [3, 8] | number of PAS(+) cells as percent of total number of cells (average ± SEM) [3, 9] | effect on number of PAS(+), mucus producing cells (in words) [3, 10] | Oedema: area of oedema relative to area of vasculature (average ± SEM) [4, 8] | Oedema: area of oedema relative to area of vasculature (average ± SEM) [4, 9] | effect on extent of oedema around the vasculature (in words) [4, 10] | Eosinophil: eosinophil number/ml BALF (average ± SEM) [5, 8] | Eosinophil: eosinophil number/ml BALF (average ± SEM) [5, 9] | effect on number of eosinophils in the bronchioalveolar lavage (in words) ([5]; higher doses (1.0 mg/kg intratracheally)) | effect on number of eosinophils in the bronchioalveolar lavage (in words) ([5]; smallest dose (0.01 mg/kg intratracheally))
O=S(=O)([O-])OC[C@H]1O[C@H](OC[C@H]2O[C@H](O[C@]3(COS(=O)(=O)[O-])O[C@H](COS(=O)(=O)[O-])[C@@H](OS(=O)(=O)[O-])[C@@H]3OS(=O)(=O)[O-])[C@H](OS(=O)(=O)[O-])[C@@H](OS(=O)(=O)[O-])[C@@H]2OS(=O)(=O)[O-])[C@H](OS(=O)(=O)[O-])[C@@H](OS(=O)(=O)[O-])[C@H]1OS(=O)(=O)[O-].[K+].[K+].[K+].[K+].[K+].[K+].[K+].[K+].[K+].[K+].[K+] [IIC, raffinose undecasulfate undeca potassium salt] | significant IP-3 antagonist activity | 0.43 ± 0.05 (3) μg/ml | 238 nM | – | – | – | – | – | – | – | – | – | – | – | – | – | – | – | – | –
O=S(=O)(O)OC[C@H]1O[C@H](O[C@H]2O[C@H](COS(=O)(=O)O)[C@@H](OS(=O)(=O)O)[C@H](OS(=O)(=O)O)[C@H]2OS(=O)(=O)O)[C@H](OS(=O)(=O)O)[C@@H](OS(=O)(=O)O)[C@@H]1OS(=O)(=O)O [IIB, trehalose octasulfate octa potassium salt] | – | – | 194 nM | 244 nM | – | – | – | – | – | – | – | – | – | – | – | – | – | – | – | –
O=S(=O)([O-])OC[C@H]1O[C@@](COS(=O)(=O)[O-])(O[C@H]2O[C@H](COS(=O)(=O)[O-])[C@@H](OS(=O)(=O)[O-])[C@H](OS(=O)(=O)[O-])[C@H]2OS(=O)(=O)[O-])[C@@H](OS(=O)(=O)[O-])[C@@H]1OS(=O)(=O)[O-].[Na+].[Na+].[Na+].[Na+].[Na+].[Na+].[Na+].[Na+] [IIA, sucrose octasulfate octa sodium salt] | significant IP-3 antagonist activity | 0.26 ± 0.05 (4) μg/ml | 208 nM | – | 167 ± 36 | 4.73 ± 0.50 log M | 131 ± 22 | 4.98 ± 0.30 log M | notably decreased this elevation | notably | 19.2 ± 2.7% | 7.3 ± 1.4% | statistically significantly decreased | 177 ± 10 | 119 ± 7 | significantly decreased | 0.89 ± 0.13 eosinophil number/ml BALF | 0.70 ± 0.08 eosinophil number/ml BALF | the decrease become statistically significant | decreases the extent of it
